# Tests used:
# Type in all cases: in vivo
# [1] = test system: Alopecurus myosuroides (ALOMY); experiment: Herbicidal glasshouse test, post-emergence; details: post-emergence (sprayed after 8 days cultivation), 1000 g/h, evaluated after 13 days
# Method: (§1) Seeds of a variety of test species are sown in standard soil in pots (Alopecurus myosuroides (ALOMY), Setaria faberi (SETFA), Echinochloa crus-galli (ECHCG), Solanum nigrum (SOLNI), Amaranthus retoflexus (AMARE), Ipomoea hederacea (IPOHE)). After cultivation for one day (pre-emergence) or after 8 days cultivation (post-emergence) under controlled conditions in a glasshouse (at 24/16° C., day/night; 14 hours light; 65% humidity), the plants are sprayed with an aqueous spray solution derived from the formulation of the technical active ingredient in acetone/water (50:50) solution containing 0.5% Tween 20 (polyoxyethelyene sorbitan monolaurate, CAS RN 9005-64-5). Compounds are applied at 1000 g/h. The test plants are then grown in a glasshouse under controlled conditions in a glasshouse (at 24/16° C., day/night; 14 hours light; 65% humidity) and watered twice daily. After 13 days for pre and post-emergence, the test is evaluated for the percentage damage caused to the plant. The biological activities are shown in the following table on a five point scale (5=80-100%; 4=60-79%; 3=40-59%; 2=20-39%; 1=0-19%).
# [2] = test system: Amaranthus retoflexus (AMARE); experiment: Herbicidal glasshouse test, post-emergence; details: post-emergence (sprayed after 8 days cultivation), 1000 g/h, evaluated after 13 days
# Method: as §1
# [3] = test system: Ipomoea hederacea (IPOHE); experiment: Herbicidal glasshouse test, post-emergence; details: post-emergence (sprayed after 8 days cultivation), 1000 g/h, evaluated after 13 days
# Method: as §1
# [4] = test system: Solanum nigrum (SOLNI); experiment: Herbicidal glasshouse test, post-emergence; details: post-emergence (sprayed after 8 days cultivation), 1000 g/h, evaluated after 13 days
# Method: as §1
# [5] = test system: Echinochloa crus-galli (ECHCG); experiment: Herbicidal glasshouse test, post-emergence; details: post-emergence (sprayed after 8 days cultivation), 1000 g/h, evaluated after 13 days
# Method: as §1
# [6] = test system: Setaria faberi (SETFA); experiment: Herbicidal glasshouse test, post-emergence; details: post-emergence (sprayed after 8 days cultivation), 1000 g/h, evaluated after 13 days
# Method: as §1
# [7] = test system: Alopecurus myosuroides (ALOMY); experiment: Herbicidal glasshouse test, pre-emergence; details: pre-emergence (sprayed after cultivation for one day), 1000 g/h, evaluated after 13 days
# Method: as §1
# [8] = test system: Amaranthus retoflexus (AMARE); experiment: Herbicidal glasshouse test, pre-emergence; details: pre-emergence (sprayed after cultivation for one day), 1000 g/h, evaluated after 13 days
# Method: as §1
# [9] = test system: Ipomoea hederacea (IPOHE); experiment: Herbicidal glasshouse test, pre-emergence; details: pre-emergence (sprayed after cultivation for one day), 1000 g/h, evaluated after 13 days
# Method: as §1
# [10] = test system: Solanum nigrum (SOLNI); experiment: Herbicidal glasshouse test, pre-emergence; details: pre-emergence (sprayed after cultivation for one day), 1000 g/h, evaluated after 13 days
# Method: as §1
# [11] = test system: Echinochloa crus-galli (ECHCG); experiment: Herbicidal glasshouse test, pre-emergence; details: pre-emergence (sprayed after cultivation for one day), 1000 g/h, evaluated after 13 days
# Method: as §1
# [12] = test system: Setaria faberi (SETFA); experiment: Herbicidal glasshouse test, pre-emergence; details: pre-emergence (sprayed after cultivation for one day), 1000 g/h, evaluated after 13 days
# Method: as §1
Structure (SMILES),"percentage damage caused to the plant, five point scale, POST Application ALOMY [1]","percentage damage caused to the plant, five point scale, POST Application AMARE [2]","percentage damage caused to the plant, five point scale, POST Application IPOHE [3]","percentage damage caused to the plant, five point scale, POST Application SOLNI [4]","percentage damage caused to the plant, five point scale, POST Application ECHCG [5]","percentage damage caused to the plant, five point scale, POST Application SETFA [6]","percentage damage caused to the plant, five point scale, PRE Application ALOMY [7]","percentage damage caused to the plant, five point scale, PRE Application AMARE [8]","percentage damage caused to the plant, five point scale, PRE Application IPOHE [9]","percentage damage caused to the plant, five point scale, PRE Application SOLNI [10]","percentage damage caused to the plant, five point scale, PRE Application ECHCG [11]","percentage damage caused to the plant, five point scale, PRE Application SETFA [12]"
CCOc1ccc(-n2nc(C)cc(C(=O)Nc3nnnn3C)c2=O)cc1 [Compound 1.010],5 (5=80-100%),5 (5=80-100%),5 (5=80-100%),5 (5=80-100%),5 (5=80-100%),5 (5=80-100%),5 (5=80-100%),5 (5=80-100%),4 (4=60-79%),5 (5=80-100%),5 (5=80-100%),5 (5=80-100%)
CCc1ccc(-n2nc(C)cc(C(=O)Nc3nnnn3C)c2=O)cc1 [Compound 1.011],5 (5=80-100%),5 (5=80-100%),5 (5=80-100%),5 (5=80-100%),5 (5=80-100%),5 (5=80-100%),5 (5=80-100%),5 (5=80-100%),4 (4=60-79%),5 (5=80-100%),5 (5=80-100%),5 (5=80-100%)
Cc1cc(C(=O)Nc2nnnn2C)c(=O)n(-c2ccc(Cl)cc2)n1 [Compound 1.012],5 (5=80-100%),5 (5=80-100%),5 (5=80-100%),5 (5=80-100%),5 (5=80-100%),5 (5=80-100%),5 (5=80-100%),5 (5=80-100%),3 (3=40-59%),5 (5=80-100%),5 (5=80-100%),5 (5=80-100%)
Cc1cc(C(=O)Nc2nnnn2C)c(=O)n(-c2ccc(F)c(F)c2)n1 [Compound 1.013],5 (5=80-100%),5 (5=80-100%),5 (5=80-100%),5 (5=80-100%),5 (5=80-100%),5 (5=80-100%),5 (5=80-100%),5 (5=80-100%),4 (4=60-79%),5 (5=80-100%),5 (5=80-100%),5 (5=80-100%)

# — patent US9402398B2, “Herbicidal compounds” (SYNGENTA PARTICIPATIONS AG, priority 2012, dated 2016)
